In PubChem BioAssay (NCI):
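Briefly, cells in 96-well plates were exposed to five compound concentrations for 48 h, and endpoints were estimated by linear interpolation. At the GI50, growth is halved. TGI marks complete inhibition of growth.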

Legend:
Experiment in all cases: NCI tumour cell line growth inhibition, 48 h
A549 NSCLC = test system: A549 NSCLC
ACHN renal = test system: ACHN renal
CCRF-CEM leukemia = test system: CCRF-CEM leukemia
HCT-15 colon = test system: HCT-15 colon
MDA-MB-435 = test system: MDA-MB-435
NCI-H226 lung = test system: NCI-H226 lung
NCI-H460 lung = test system: NCI-H460 lung
SK-MEL-28 melanoma = test system: SK-MEL-28 melanoma
SW-620 colon = test system: SW-620 colon
UACC-257 melanoma = test system: UACC-257 melanoma

N#CC1=C(N)Oc2cc(O)ccc2C1c1cccc2ccccc12 (stereo not given)
GI50 (A549 NSCLC): 7.02 µM | TGI (A549 NSCLC): > 100 µM | GI50 (ACHN renal): 17.2 µM | TGI (ACHN renal): 35 µM | GI50 (CCRF-CEM leukemia): 7 µM | TGI (CCRF-CEM leukemia): 36.9 µM | GI50 (HCT-15 colon): 8.71 µM | TGI (HCT-15 colon): 26.9 µM | GI50 (MDA-MB-435): 2.51 µM | TGI (MDA-MB-435): 6.68 µM | GI50 (NCI-H226 lung): 24.2 µM | TGI (NCI-H226 lung): 82.3 µM | GI50 (NCI-H460 lung): 12.4 µM | TGI (NCI-H460 lung): 32.5 µM | GI50 (SK-MEL-28 melanoma): 12.7 µM | TGI (SK-MEL-28 melanoma): 27.9 µM | GI50 (SW-620 colon): 3.95 µM | TGI (SW-620 colon): > 100 µM | GI50 (UACC-257 melanoma): 14.1 µM | TGI (UACC-257 melanoma): 30.1 µM

O=C1NC(=O)/C(=C\c2ccccc2)C2=C1CCCC2
GI50 (A549 NSCLC): 19.7 µM | TGI (A549 NSCLC): 51.6 µM | GI50 (ACHN renal): 5.78 µM | TGI (ACHN renal): 18.6 µM | GI50 (CCRF-CEM leukemia): 3.7 µM | TGI (CCRF-CEM leukemia): > 37.9 µM | GI50 (HCT-15 colon): 10.4 µM | TGI (HCT-15 colon): 22.5 µM | GI50 (MDA-MB-435): 1.82 µM | TGI (MDA-MB-435): 3.49 µM | GI50 (NCI-H226 lung): 10.8 µM | TGI (NCI-H226 lung): 23 µM | GI50 (NCI-H460 lung): 16.3 µM | TGI (NCI-H460 lung): 36 µM | GI50 (SK-MEL-28 melanoma): 4.14 µM | TGI (SK-MEL-28 melanoma): 13.9 µM | GI50 (SW-620 colon): 2.37 µM | TGI (SW-620 colon): 6.94 µM | GI50 (UACC-257 melanoma): 8.11 µM | TGI (UACC-257 melanoma): 22.5 µM

COCC1(CO)C(=O)C2CCN1CC2 (stereo not given)
GI50 (A549 NSCLC): > 79 µM | TGI (A549 NSCLC): > 100 µM | GI50 (ACHN renal): 14.5 µM | TGI (ACHN renal): 28.7 µM | GI50 (CCRF-CEM leukemia): 10.8 µM | TGI (CCRF-CEM leukemia): 37.1 µM | GI50 (HCT-15 colon): 15.8 µM | TGI (HCT-15 colon): 32.7 µM | GI50 (MDA-MB-435): 17.1 µM | TGI (MDA-MB-435): 32.8 µM | GI50 (NCI-H226 lung): > 47.5 µM | TGI (NCI-H226 lung): > 71.9 µM | GI50 (NCI-H460 lung): > 59 µM | TGI (NCI-H460 lung): > 100 µM | GI50 (SK-MEL-28 melanoma): 14.5 µM | TGI (SK-MEL-28 melanoma): 28.6 µM | GI50 (SW-620 colon): 18.1 µM | TGI (SW-620 colon): 37.9 µM | GI50 (UACC-257 melanoma): 17.7 µM | TGI (UACC-257 melanoma): 34 µM

COc1ccc(O)c(C(=O)c2ccc(C(=O)N[C@H]3CCCNC[C@@H]3NC(=O)c3ccncc3)cc2)c1F
GI50 (A549 NSCLC): 16.3 µM | TGI (A549 NSCLC): > 25 µM | GI50 (ACHN renal): 11.5 µM | TGI (ACHN renal): > 25 µM | GI50 (CCRF-CEM leukemia): 0.721 µM | TGI (CCRF-CEM leukemia): 6.42 µM | GI50 (HCT-15 colon): > 25 µM | TGI (HCT-15 colon): > 25 µM | GI50 (MDA-MB-435): > 14.9 µM | TGI (MDA-MB-435): > 25 µM | GI50 (NCI-H226 lung): > 25 µM | TGI (NCI-H226 lung): > 25 µM | GI50 (NCI-H460 lung): 10.5 µM | TGI (NCI-H460 lung): > 25 µM | GI50 (SK-MEL-28 melanoma): > 18.4 µM | TGI (SK-MEL-28 melanoma): > 25 µM | GI50 (SW-620 colon): > 25 µM | TGI (SW-620 colon): > 25 µM | GI50 (UACC-257 melanoma): > 25 µM | TGI (UACC-257 melanoma): > 25 µM

CSc1ccc2c(c1)C(=O)c1c-2n(CCCBr)c(=O)c2cc([N+](=O)[O-])ccc12
GI50 (A549 NSCLC): 7.61 µM | TGI (A549 NSCLC): > 100 µM | GI50 (ACHN renal): 1.61 µM | TGI (ACHN renal): 8.4 µM | GI50 (CCRF-CEM leukemia): 0.451 µM | TGI (CCRF-CEM leukemia): > 100 µM | GI50 (HCT-15 colon): 47.2 µM | TGI (HCT-15 colon): > 100 µM | GI50 (MDA-MB-435): 31 µM | TGI (MDA-MB-435): > 100 µM | GI50 (NCI-H226 lung): 33.6 µM | TGI (NCI-H226 lung): > 100 µM | GI50 (NCI-H460 lung): 0.547 µM | TGI (NCI-H460 lung): > 100 µM | GI50 (SK-MEL-28 melanoma): 51.8 µM | TGI (SK-MEL-28 melanoma): > 100 µM | GI50 (SW-620 colon): 4.04 µM | TGI (SW-620 colon): > 100 µM | GI50 (UACC-257 melanoma): > 100 µM | TGI (UACC-257 melanoma): > 100 µM
